Test results reported in ChEMBL document CHEMBL4742397, “Compositions and methods for regulating body weight and metabolic syndromes” (2018).
The source made the active and inactive calls.

Key:
3T3-L1 [1] = experiment: Inhibition of lipid accumulation in mouse 3T3-L1 cells at 5 to 20 uM incubated for 6 days by Oil Red O staining based spectrometric assay; type: functional, cell-based; settings: dose 5-20 µM, time 6.0 day
Mus musculus [2] = experiment: Anti-diabetic activity in high fat diet-fed C57BL/6J mouse model of obesity and diabetes assessed as reduction of whole body fat mass at 20 mg/kg, ip dosed daily for 2 weeks; type: functional, organism-based
3T3-L1 [3] = experiment: Inhibition of lipid accumulation in mouse 3T3-L1 cells at 10 to 20 uM incubated for 6 days by CARS microscopy; type: functional, cell-based; settings: dose 10-20 µM, time 6.0 day
3T3-L1 [4] = experiment: Effect on superoxide dismutase 1 in mouse 3T3-L1 cells at 10 uM dosed during day 2 to 6 and followed by drug replacement every 48 hrs by LC-MS/MS analysis based proteomic analysis; type: functional; settings: time 4.0 day
3T3-L1 [5] = experiment: Effect on cytochrome B5 reductase 3 in mouse 3T3-L1 cells at 10 uM dosed during day 2 to 6 and followed by drug replacement every 48 hrs by LC-MS/MS analysis based proteomic analysis; type: functional; settings: time 4.0 day
3T3-L1 [6] = experiment: Inhibition of cholesterol uptake related gene expression in mouse 3T3-L1 cells assessed as reduction in CD36 expression at 20 uM incubated for 6 days by real-time PCR analysis; type: functional, cell-based; settings: time 6.0 day
3T3-L1 [7] = experiment: Inhibition of lipid synthesis related gene expression in mouse 3T3-L1 cells assessed as reduction in SREBPlc expression at 20 uM incubated for 6 days by real-time PCR analysis; type: functional, cell-based; settings: time 6.0 day
3T3-L1 [8] = experiment: Increase in 125 kDa inactive precursor form of SREBPl protein in mouse 3T3-L1 cells at 20 uM incubated for 6 days by Western blot analysis; type: functional, cell-based; settings: time 6.0 day
Mus musculus [9] = experiment: Anti-diabetic activity in high fat diet-fed C57BL/6J mouse model of obesity and diabetes assessed as reduction in body weight at 20 mg/kg, ip dosed daily for 8 days; type: functional, organism-based; settings: time 8.0 day
Mus musculus [10] = experiment: Anti-diabetic activity in high fat diet-fed C57BL/6J mouse model of obesity and diabetes assessed as reduction in total body weight gain at 20 mg/kg, ip dosed daily for 2 weeks; type: functional; parameters: scale not given: the % may be the effect or the level left
Mus musculus [11] = experiment: Anti-diabetic activity in high fat diet-fed C57BL/6J mouse model of obesity and diabetes assessed as reduction in food intake at 20 mg/kg, ip dosed daily for 8 days; type: functional, organism-based; settings: time 8.0 day
Mus musculus [12] = experiment: Effect on fecal energy content in high fat diet-fed C57BL/6J mouse model of obesity and diabetes at 20 mg/kg, ip dosed daily for 8 days; type: functional, organism-based; settings: time 8.0 day
Mus musculus [13] = experiment: Anti-diabetic activity in high fat diet-fed C57BL/6J mouse model of obesity and diabetes assessed as reduction of white adipose tissue at 20 mg/kg, ip dosed daily for 2 weeks; type: functional, organism-based
3T3-L1 [14] = experiment: Suppression of cholesterol levels in mouse 3T3-L1 cells; type: functional, cell-based
3T3-L1 [15] = experiment: Inhibition of lipid accumulation in mouse 3T3-L1 cells at 1 to 20 uM incubated for 6 days by Oil Red O staining based spectrometric assay; type: functional, cell-based; settings: dose 1-20 µM, time 6.0 day
Mus musculus [16] = experiment: Anti-diabetic activity in high fat diet-fed C57BL/6J mouse model of obesity and diabetes assessed as reduction in respiratory exchange ratio at 20 mg/kg, ip dosed daily for 2 weeks; type: functional, organism-based
3T3-L1 [17] = experiment: Inhibition of LD accumulation mouse 3T3-L1 cells using deuterium labeled glucose-d7 by SRS microscopy; type: functional, cell-based
[18] = Hepato-toxicity in high fat diet-fed C57BL/6J mouse model of obesity and diabetes assessed as effect on ALT activity at 20 mg/kg, ip dosed daily for 2 weeks; type: organism-based; settings: in vivo, 336 h
3T3-L1 [19] = experiment: Inhibition of lipid synthesis related gene expression in mouse 3T3-L1 cells assessed as reduction in SCD1 expression at 20 uM incubated for 6 days by real-time PCR analysis; type: functional, cell-based; settings: time 6.0 day
3T3-L1 [20] = experiment: Inhibition of lipid synthesis related gene expression in mouse 3T3-L1 cells assessed as reduction in FAS expression at 20 uM incubated for 6 days by real-time PCR analysis; type: functional, cell-based; settings: time 6.0 day
[21] = biological target: T1, Sterol O-acyltransferase 1 (Mus musculus) (UniProt Q61263); experiment: Inhibition of ACAT in mouse 3T3-L1 cells assessed as reduction in accumulation of fluorescence-labeled CE by 25-NBD cholesterol based assay; type: cell-based
T1 sequence (whole entry): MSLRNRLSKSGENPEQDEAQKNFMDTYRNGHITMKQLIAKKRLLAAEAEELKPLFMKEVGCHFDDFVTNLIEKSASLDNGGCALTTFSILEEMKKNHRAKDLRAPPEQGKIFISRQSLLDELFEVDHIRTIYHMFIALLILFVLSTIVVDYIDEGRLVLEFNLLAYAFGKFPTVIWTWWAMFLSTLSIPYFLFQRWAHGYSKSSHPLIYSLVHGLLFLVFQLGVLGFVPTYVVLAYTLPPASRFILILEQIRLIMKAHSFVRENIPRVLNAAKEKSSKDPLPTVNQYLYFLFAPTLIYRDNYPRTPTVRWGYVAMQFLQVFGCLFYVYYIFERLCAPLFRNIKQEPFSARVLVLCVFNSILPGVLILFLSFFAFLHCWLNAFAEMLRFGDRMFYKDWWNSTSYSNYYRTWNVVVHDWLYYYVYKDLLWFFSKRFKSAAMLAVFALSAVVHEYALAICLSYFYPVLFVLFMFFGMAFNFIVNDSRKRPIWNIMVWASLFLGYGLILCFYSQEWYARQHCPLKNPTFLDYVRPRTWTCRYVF

Mus musculus [22] = experiment: Anti-diabetic activity in high fat diet-fed C57BL/6J mouse model of obesity and diabetes assessed as reduction in food intake at 20 mg/kg, ip dosed daily for 2 weeks; type: functional; parameters: scale not given: the % may be the effect or the level left
3T3-L1 [23] = experiment: Inhibition of lipid synthesis related gene expression in mouse 3T3-L1 cells assessed as reduction in DGAT2 expression at 20 uM incubated for 6 days by real-time PCR analysis; type: functional, cell-based; settings: time 6.0 day
Mus musculus [24] = experiment: Anti-diabetic activity in high fat diet-fed C57BL/6J mouse model of obesity and diabetes assessed as reduction in energy expenditure at 20 mg/kg, ip dosed daily for 2 weeks; type: functional, organism-based
Mus musculus [25] = experiment: Anti-diabetic activity in high fat diet-fed C57BL/6J mouse model of obesity and diabetes assessed as reduction in blood glucose at 20 mg/kg, ip dosed daily for 2 weeks; type: functional, organism-based
Mus musculus [26] = experiment: Anti-diabetic activity in high fat diet-fed C57BL/6J mouse model of obesity and diabetes assessed as improvement in glucose tolerance at 20 mg/kg, ip dosed daily for 2 weeks; type: functional, organism-based
3T3-L1 [27] = experiment: Inhibition of CE accumulation in mouse 3T3-L1 cells; type: functional, cell-based
3T3-L1 [28] = experiment: Inhibition of lipid synthesis related gene expression in mouse 3T3-L1 cells assessed as reduction in PPARgamma expression at 20 uM incubated for 6 days by real-time PCR analysis; type: functional, cell-based; settings: time 6.0 day
Mus musculus [29] = experiment: Anti-diabetic activity in high fat diet-fed C57BL/6J mouse model of obesity and diabetes assessed as improvement in blood lipid profile by measuring decrease in TG level at 20 mg/kg, ip dosed daily for 2 weeks; type: functional, organism-based
Mus musculus [30] = experiment: Anti-diabetic activity in high fat diet-fed C57BL/6J mouse model of obesity and diabetes assessed as reduction of white adipose tissue weight (epididymal adipose tissue ) at 20 mg/kg, ip dosed daily for 2 weeks; type: functional, organism-based
3T3-L1 [31] = experiment: Inhibition of lipid accumulation in mouse 3T3-L1 cells at 1 to 20 uM incubated for 6 days by Oil Red O staining based spectrometric assay relative to control; type: functional; settings: dose 1-20 µM, time 6 day
Mus musculus [32] = experiment: Anti-diabetic activity in high fat diet-fed C57BL/6J mouse model of obesity and diabetes assessed as improvement in blood lipid profile by measuring decrease in CE level at 20 mg/kg, ip dosed daily for 2 weeks; type: functional, organism-based
Mus musculus [33] = experiment: Anti-diabetic activity in high fat diet-fed C57BL/6J mouse model of obesity and diabetes assessed as reduction in serum leptin level at 20 mg/kg, ip dosed daily for 2 weeks; type: functional, organism-based
Mus musculus [34] = experiment: Anti-diabetic activity in high fat diet-fed C57BL/6J mouse model of obesity and diabetes assessed as improvement in HOMA-IR levels at 20 mg/kg, ip dosed daily for 2 weeks; type: functional, organism-based
Mus musculus [35] = experiment: Anti-diabetic activity in high fat diet-fed C57BL/6J mouse model of obesity and diabetes assessed as improvement in blood lipid profile by measuring decrease in free cholesterol at 20 mg/kg, ip dosed daily for 2 weeks; type: functional, organism-based
Mus musculus [36] = experiment: Anti-diabetic activity in high fat diet-fed C57BL/6J mouse model of obesity and diabetes assessed as reduction in insulin levels at 20 mg/kg, ip dosed daily for 2 weeks; type: functional, organism-based
Mus musculus [37] = experiment: Anti-diabetic activity in high fat diet-fed C57BL/6J mouse model of obesity and diabetes assessed as reduction of white adipose tissue weight (retroperitoneal adipose tissue ) at 20 mg/kg, ip dosed daily for 2 weeks; type: functional, organism-based
3T3-L1 [38] = experiment: Inhibition of lipid synthesis related gene expression in mouse 3T3-L1 cells assessed as reduction in MGAT1 expression at 20 uM incubated for 6 days by real-time PCR analysis; type: functional, cell-based; settings: time 6.0 day
3T3-L1 [39] = experiment: Inhibition of cholesterol uptake related gene expression in mouse 3T3-L1 cells assessed as reduction in SR-B1 expression at 20 uM incubated for 6 days by real-time PCR analysis; type: functional, cell-based; settings: time 6.0 day

CCCCCCCCCCC(C)(C)C(=O)Nc1c(OC)cc(OC)cc1OC
active: inhibition (3T3-L1 [1])

CC(C)c1cc(C(C)C)c(CC(=O)NS(=O)(=O)Oc2c(C(C)C)cccc2C(C)C)c(C(C)C)c1 [AVASIMIBE]
active: Activity (Mus musculus [2]) | inhibition (3T3-L1 [3]) | inhibition (3T3-L1 [6]) | inhibition (3T3-L1 [7]) | Activity (3T3-L1 [8]) | Activity (Mus musculus [9]) | Activity (Mus musculus [11]) | Activity (Mus musculus [13]) | inhibition (3T3-L1 [14]) | inhibition (3T3-L1 [15]) Dose-dependent effect | Activity (Mus musculus [16]) | inhibition (3T3-L1 [17]) | inhibition (3T3-L1 [19]) | inhibition (3T3-L1 [20]) | inhibition [21] | inhibition (3T3-L1 [23]) | Activity (Mus musculus [24]) | Activity (Mus musculus [25]) | Activity (Mus musculus [26]) | inhibition (3T3-L1 [27]) | inhibition (3T3-L1 [28]) | Activity (Mus musculus [29]) | Activity (Mus musculus [30]) | Activity (Mus musculus [32]) | Activity (Mus musculus [33]) | Activity (Mus musculus [34]) | Activity (Mus musculus [35]) | Activity (Mus musculus [36]) | Activity (Mus musculus [37]) | inhibition (3T3-L1 [38]) | inhibition (3T3-L1 [39])
25%: Activity (Mus musculus [10])
Non-Toxic: Activity [18]
<=60%: inhibition (INH) (3T3-L1 [31])
50%: Activity (Mus musculus [22])
inactive: Activity (3T3-L1 [4]) | Activity (3T3-L1 [5]) | Activity (Mus musculus [12])
